Data on six molecules can be found in US7919531B2, “3,5-dihydroxy-2,4-cyclohexadienones and their derivatives, dietary compositions and fortified food containing them and their uses” (DSM IP Assets B.V., priority 2006, dated 2011).

Assay [1] deals with T1, human serotonin re-uptake transporter (hSERT) (Homo sapiens, UniProt P31645).
T1 construct: host or cells: HEK-293
The assay can be described thus: Serotonin uptake inhibition in HEK-293 cells expressing hSERT. The class given is cell-based. Conditions: for Effect on serotonin re-uptake (hSERT dependent uptake of tritiated serotonin into transfected cells): result in words; for Ki: transfected HEK-293 cells, Ki from measured IC50 by Cheng-Prusoff, average +/− s.e.m. of two experiments, read-out: Inhibition constant Ki for tritiated serotonin uptake. The text has this:
HEK-293 cells stably expressing the human serotonin re-uptake transporter (hSERT) were obtained from R. Blakely, Vanderbilt University, USA. The cells were routinely grown in Dulbeco's Modified Eagles Medium (Bioconcept) containing 10% fetal calf serum, penicillin, streptomycin, L-glutamine and the antibiotic G418 and passaged by trypsinisation. On the day of assay, cells from 80% confluent flasks were harvested by gentle washing with warm phosphate buffered saline (PBS). Cells were then washed once by centrifugation and re-suspended in Krebs Ringers bicarbonate buffer (Sigma) supplemented with 35 μM pargyline, 2.2 mM CaCl2, 1 mM ascorbic acid and 5 mM N-2-hydroxyethylpiperazine-N′-2-ethanesulfonic acid (buffer called “Hepes”) at a concentration of 10,000 cells in 160 ul of buffer, and aliquoted into round bottomed polypropylene 96 well microtitre plates (Corning) at 10,000 cells per well. Serotonin uptake into the cells was determined by addition of radio-labeled (3H) serotonin (GE Healthcare) to a concentration of 20 nM, and incubation for 40 minutes at 37° C. with gentle shaking. At the end of this time unincorporated label was removed by filtration though Unifilter 96 GF/B plates (Perkin Elmer) using a Tomtec Mach III M cell harvester. The incorporated serotonin retained on the plates was quantified by liquid scintillation counting using Microscint-40/Topcount (Perkin Elmer).
The effect of (−)-humulone and lupulone on the serotonin uptake was determined by their inclusion in the assay at a range of concentrations between 0.03 and 100 μM for 10 minutes prior to and during the addition of (3H) serotonin. Serotonin uptake via the transporter was inhibited by (−)-humulone and lupulone, respectively, in a dose dependent manner.
The calculated inhibition constants Ki, derived from the measured IC50 using the Cheng-Prusoff equation (Y. C. Cheng, W. H. Prusoff, Biochem. Pharmacol. 1973, 22, p. 3099-3108), for inhibition of serotonin uptake by (−)-humulone and lupulone are shown in Table 1.

In assay [2] the test system is mouse. The experiment in a line: Marble burying test in the mouse. The class given is in vivo. Conditions: for Number of marbles covered by sawdust, mean ± s.e.m.: vehicle 20.1 ± 1.7. An excerpt: The method applied here follows that described by Broekkamp et al. (European Journal of Pharmacology 1986, 126, 223-229.). Mice (n=15 per treatment group) were individually placed in transparent plastic cages (33×21×18 cm) with 5 cm of sawdust on the floor and 25 marbles (diameter 1 cm) grouped in the centre of the cage. A second, up-turned, cage served as a lid. The number of marbles covered by sawdust (by at least two-thirds) was counted at the end of the 30-minute test period. Tests were performed by investigators blind to the drug treatment protocol.
Prior to testing, all test cages and marbles were “impregnated” by leaving 10 naive mice in each cage for 15 minutes.
(−)-Humulone was solubilized in physiological saline. The control substance fluoxetine (Prozac®) (Lilly), batches n^o A069667 and A058238) was dispersed in 0.2% hydroxypropylmethylcellulose (HPMC) in physiological saline.
(−)-Humulone was evaluated at 3, 10 and 30 mg/kg, administered i.p. 30 minutes before the test, and compared with a vehicle control group. Fluoxetine (32 mg/kg), administered under the same experimental conditions, was used as a reference substance.
Data were analysed by comparing treated groups with vehicle control using unpaired Student's t-tests.

The subject of assay [3] is mouse. The assay can be described thus: Light dark box test in the mouse after subchronic oral gavage. Type of assay: in vivo. Conditions: for Number of crossings, mean ± sem / Time spent in light compartment, mean ± sem: 5 h and 1 h before test; for Number of crossings, mean ± sem: vehicle 6.5 ± 1.0; for Time spent in light compartment, mean ± sem: vehicle 64.4 ± 4.7; for Number of crossings, % change / Time spent in light compartment, % change: versus vehicle control. The text has this:
The method, which detects anxiolytic activity, follows that described by Crawley (Pharmacol. Biochem. Behav. 1981, 15, 695-699). Anxiolytics increase the time spent in the light compartment.
Animals were placed into the light compartment of a 2-compartment box with one half light and open (25×27×27 cm) and the other half dark and closed (20×27×27 cm). The time spent in each compartment as well as the number of times the animal crosses from one side to the other is scored during a 3-minute test. 15 mice were studied per group. The test was performed blind. […]
Clobazam (32 mg/kg orally), administered 1 hour before the test, will be used as reference substance. Mice in this group received additional administrations of vehicle at 25 and 5 hours before the test in order to maintain experimental blinding.

For assay [4], the system named is mouse. The experiment in a line: Primary observation (Irwin) test in the mouse. The following applies: 30 mg/kg i.p., 5 mice per group. Type of assay: in vivo. The text has this:
The method, which detects the first toxic dose, the active dose-range and the principal effects of a test substance on behaviour and physiological function, follows that described by Irwin (Irwin S. Comprehensive observational assessment: A systematic quantitative procedure for assessing the behavioural and physiologic state of the mouse. Psychopharmacologia, 1968, 13, 222-257).
3 treated groups were compared with the same control at any one time. All animals within a treatment group were observed simultaneously.
Behavioural modifications, physiological and neurotoxicity symptoms, pupil diameter and rectal temperature were recorded according to a standardized observation grid derived from that of Irwin. The grid contains the following items: lethality*, convulsions*, tremor*, Straub*, sedation, excitation, abnormal gait* (rolling, tip-toe), jumps*, motor incoordination*, writhes*, piloerection*, stereotypies* (sniffing, chewing, head movements), head twitches*, scratching*, respiration*, aggressiveness*, fear, reactivity to touch, muscle tone, loss of righting reflex, ptosis, exopthalmos, loss of grasping, akinesia, catalepsy, loss of traction, loss of corneal reflex, analgesia, defecation, salivation, lacrimation, pupil diameter (Unit=1/45 mm) and rectal temperature.
Observations were performed 15, 30, 60, 120 and 180 minutes after administration of the test substance ((−)-humulone) and also 24 hours later. The symptoms marked (*) were observed continuously from 0 to 15 minutes after administration. 5 mice were studied per group.
(−)-Humulone was solubilized in physiological saline and injected into mice intraperitoneally.

The mark [5] stands for this setting: 50 mg/kg p.o., listed as (−)-Humulone.

T1 sequence (P31645 whole entry): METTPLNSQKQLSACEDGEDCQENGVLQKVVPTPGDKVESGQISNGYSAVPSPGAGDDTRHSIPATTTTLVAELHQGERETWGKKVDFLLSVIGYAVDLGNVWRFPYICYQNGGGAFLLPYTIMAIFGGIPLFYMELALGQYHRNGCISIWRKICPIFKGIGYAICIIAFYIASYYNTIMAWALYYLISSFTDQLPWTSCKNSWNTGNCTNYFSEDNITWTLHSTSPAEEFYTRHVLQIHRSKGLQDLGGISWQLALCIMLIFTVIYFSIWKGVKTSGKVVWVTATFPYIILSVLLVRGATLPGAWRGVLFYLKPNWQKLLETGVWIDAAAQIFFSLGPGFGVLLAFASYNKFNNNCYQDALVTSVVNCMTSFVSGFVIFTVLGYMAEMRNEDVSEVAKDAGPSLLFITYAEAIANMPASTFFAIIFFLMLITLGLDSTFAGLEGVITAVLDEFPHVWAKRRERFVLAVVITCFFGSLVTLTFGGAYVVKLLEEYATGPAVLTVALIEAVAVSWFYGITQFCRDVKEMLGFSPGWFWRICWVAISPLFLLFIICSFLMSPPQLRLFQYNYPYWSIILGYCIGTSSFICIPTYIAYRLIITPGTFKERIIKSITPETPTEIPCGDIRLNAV

On to “6-hydroxycolupulone [compound 5, reference compound]”, for which the “Effect on serotonin re-uptake (hSERT dependent uptake of tritiated serotonin into transfected cells)” value (“Effect on serotonin re-uptake” below) in assay [1] is on record as “no effect”.
On the same count and under the same terms, in the case of “6-hydroxylupulone [compound 4, reference compound]” it was “no effect”.
With `CC(C)=CCC1C(=O)C(C(=O)CC(C)C)=C(O)C(O)(CC=C(C)C)C1=O` (single isomer, unassigned; (-)) [(−)-humulone], the “Number of marbles covered by sawdust, % change from control” value in the assay on mouse [2] (3 mg/kg i.p. −30 min) was −9%; in the assay with mouse [2] (10 mg/kg i.p. −30 min) it was −13%; in the assay with mouse [2] (30 mg/kg i.p. −30 min), −81%. Further, the “Number of marbles covered by sawdust, mean ± s.e.m.” value was 18.3 ± 1.7 (NS) with mouse [2] (3 mg/kg i.p. −30 min), 17.5 ± 2.0 (NS) in the assay with mouse [2] (10 mg/kg i.p. −30 min) and 3.8 ± 1.5 (***) with mouse [2] (30 mg/kg i.p. −30 min). Also, the “Number of crossings, mean ± sem” value worked out at 13.7 ± 1.3 with mouse [3] (50 mg/kg p.o. -24 h), 7.9 ± 1.0 in the assay on mouse [3] (100 mg/kg p.o. -24 h) and 8.3 ± 1.2 with mouse [3] (200 mg/kg p.o. -24 h). Further, the “Time spent in light compartment, mean ± sem” value with mouse [3] (50 mg/kg p.o. -24 h) is reported as 95.4 ± 3.8 s; with mouse [3] (100 mg/kg p.o. -24 h), 86.4 ± 8.9 s; in the assay with mouse [3] (200 mg/kg p.o. -24 h), 71.5 ± 8.8 s. The “Number of crossings, % change” value is listed as “+111%” in the assay on mouse [3] (50 mg/kg p.o.), “+111%” in the assay on mouse [3] (setting [5]), “+22%” with mouse [3] (100 mg/kg p.o.) and “+28%” in the assay with mouse [3] (200 mg/kg p.o.). Besides, the “Time spent in light compartment, % change” value with mouse [3] (50 mg/kg p.o.) was “+48%”; in the assay on mouse [3] (setting [5]), “+48%”; in the assay on mouse [3] (100 mg/kg p.o.), “+34%”; in the assay on mouse [3] (100 mg/kg p.o., listed as (−)-Humulone) it was “+34%”; in the assay with mouse [3] (200 mg/kg p.o.), “+11%”; in the assay on mouse [3] (200 mg/kg p.o., listed as (−)-Humulone), “+11%”. For the same molecule, the “Decreased fear, number of mice” value was found to be 3 mice with mouse [4] (at 30 minutes) and 1 mouse with mouse [4] (at 60 minutes). Also, the figures for the “Decreased muscle tone, number of mice” value in the assay on mouse [4] (at 30 minutes) and with mouse [4] (at 60 minutes) were 4 mice and 1 mouse, respectively. For the same molecule, in assay [1], the Ki came out at 16.9 µM.
In the case of `CNCCC(Oc1ccc(C(F)(F)F)cc1)c1ccccc1` (stereo not shown) [FLUOXETINE, fluoxetine, reference compound], in the assay with mouse [2] (32 mg/kg i.p. −30 min), the “Number of marbles covered by sawdust, % change from control” value is recorded as −91% and the “Number of marbles covered by sawdust, mean ± s.e.m.” value is recorded as 1.9 ± 1.0 (***).
On to `CC(C)=CCC1=C(O)C(C(=O)CC(C)C)=C(O)C(CC=C(C)C)(CC=C(C)C)C1=O` [Lupulone, lupulone], for which, in assay [1], the “Effect on serotonin re-uptake” value is “inhibited” and the Ki was found to be 6 µM.
Consider `CC(C)=CCC(=O)C1(O)C(O)=C(C(=O)CC(C)C)C(=O)C1CC=C(C)C` (stereo not shown) [compound 3, isohumulone, reference compound], for which, in assay [1], the “Effect on serotonin re-uptake” value was “no effect”.

As a reminder, the Ki is a measure of affinity in units of concentration, obtained from inhibition or displacement.
